According to patent US12622910B2, “Inhibitors of Bruton's tyrosine kinase and methods of their use” (Janssen Pharmaceutica NV, priority 2021, dated 2026):

Tests used:
Assay in all cases: Receptor panel, Study 1
Assay type in all cases: binding
[1] = target: 5-HT1A (h) (Homo sapiens, UniProt P08908)
Method: (§1) RESULTS AND DISCUSSION—Selectivity—The compound of Formula (III) was evaluated in three selectivity panels to assess the potential for off-target pharmacology (Table 8). […] The kinase off-target profile of The compound of Formula (III) was assessed in a full human wild-type panel using radiometric kinase activity assays (KinaseProfiler™ and IC50Profiler™; Eurofins Scientific) (Table 9; FIG. 23). The compound of Formula (III) inhibited 4/278 kinases >50% at 1 micromolar, identifying BTK and the three other kinases having analogous Cys residues with the potential for covalent inhibition (BMX, TEC, BLK). […]. The cellular kinase selectivity of The compound of Formula (III) was established in native Ramos B cell kinome assays (KiNativ™; ActivX) confirmed BTK as the primary target with inhibition of BLK and TEC inhibition detected (Table 10).

[2] = target: 5-HT1B (Rattus norvegicus, UniProt P28564)
Method: as §1

[3] = target: 5-HT3 (h) (Homo sapiens, UniProt P46098)
Sequence of 5-HT3 (h) (P46098 24-478): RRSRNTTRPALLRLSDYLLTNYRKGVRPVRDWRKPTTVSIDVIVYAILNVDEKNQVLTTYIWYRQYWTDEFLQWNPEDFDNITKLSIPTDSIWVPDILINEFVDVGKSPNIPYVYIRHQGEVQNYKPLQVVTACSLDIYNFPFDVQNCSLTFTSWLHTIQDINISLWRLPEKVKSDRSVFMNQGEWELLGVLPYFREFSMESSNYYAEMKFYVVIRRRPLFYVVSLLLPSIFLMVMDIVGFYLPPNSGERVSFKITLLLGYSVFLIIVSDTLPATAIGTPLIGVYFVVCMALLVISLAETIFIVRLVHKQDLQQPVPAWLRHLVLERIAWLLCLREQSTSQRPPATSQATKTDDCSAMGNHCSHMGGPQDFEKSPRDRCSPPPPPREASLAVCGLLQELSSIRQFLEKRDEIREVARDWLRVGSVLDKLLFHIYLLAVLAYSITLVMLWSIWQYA
Method: as §1

[4] = target: 5-HT5A (h) (Homo sapiens, UniProt P47898)
Sequence of 5-HT5A (h) (P47898 whole entry): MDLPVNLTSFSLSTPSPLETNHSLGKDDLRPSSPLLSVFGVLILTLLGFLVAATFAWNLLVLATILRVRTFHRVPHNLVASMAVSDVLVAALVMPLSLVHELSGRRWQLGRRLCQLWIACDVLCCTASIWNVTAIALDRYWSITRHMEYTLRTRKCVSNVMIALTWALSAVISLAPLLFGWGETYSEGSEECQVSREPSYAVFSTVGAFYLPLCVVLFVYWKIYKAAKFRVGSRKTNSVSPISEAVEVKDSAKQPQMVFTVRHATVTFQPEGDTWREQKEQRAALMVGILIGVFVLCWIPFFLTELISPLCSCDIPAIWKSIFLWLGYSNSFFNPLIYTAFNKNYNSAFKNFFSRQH
Method: as §1

[5] = target: 5-HT6 (h) (Homo sapiens, UniProt P50406)
Method: as §1

[6] = target: 5-HT7 (h) (Homo sapiens, UniProt P34969)
Method: as §1

[7] = tested on: BZD (central)
Method: as §1

[8] = target: CXCR2 (h) (IL-8B) (Homo sapiens, UniProt P25025)
Method: as §1

[9] = tested on: Ca^2+ channel
Method: as §1

[10] = target: D1 (h) (Homo sapiens, UniProt P21728)
Sequence of D1 (h) (P21728 whole entry): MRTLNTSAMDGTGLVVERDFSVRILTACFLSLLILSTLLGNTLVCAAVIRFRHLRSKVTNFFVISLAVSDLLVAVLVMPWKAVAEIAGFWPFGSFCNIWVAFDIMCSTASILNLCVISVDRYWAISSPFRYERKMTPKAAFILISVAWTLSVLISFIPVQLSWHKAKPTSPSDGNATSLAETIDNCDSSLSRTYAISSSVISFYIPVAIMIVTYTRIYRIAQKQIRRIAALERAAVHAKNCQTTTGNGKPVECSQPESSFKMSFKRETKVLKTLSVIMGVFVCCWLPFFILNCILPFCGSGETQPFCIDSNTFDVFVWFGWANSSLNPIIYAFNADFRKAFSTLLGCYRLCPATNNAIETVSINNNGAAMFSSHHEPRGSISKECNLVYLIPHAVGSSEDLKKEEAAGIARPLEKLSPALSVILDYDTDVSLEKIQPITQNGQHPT
Method: as §1

[11] = target: ETA (h) (Homo sapiens, UniProt P25101)
Sequence of ETA (h) (P25101 21-427): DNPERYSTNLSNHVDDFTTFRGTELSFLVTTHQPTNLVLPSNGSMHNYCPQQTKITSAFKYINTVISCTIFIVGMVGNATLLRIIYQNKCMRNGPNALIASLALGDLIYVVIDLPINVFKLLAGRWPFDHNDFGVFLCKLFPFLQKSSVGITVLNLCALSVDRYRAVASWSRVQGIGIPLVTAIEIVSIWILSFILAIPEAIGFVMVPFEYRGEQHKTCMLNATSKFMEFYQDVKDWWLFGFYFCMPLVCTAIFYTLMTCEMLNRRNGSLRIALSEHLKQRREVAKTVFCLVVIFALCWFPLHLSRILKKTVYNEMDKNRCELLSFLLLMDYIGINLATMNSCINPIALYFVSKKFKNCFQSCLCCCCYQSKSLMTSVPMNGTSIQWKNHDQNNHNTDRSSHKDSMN
Method: as §1

[12] = tested on: GABA
Method: as §1

[13] = target: GAL2 (h) (Homo sapiens, UniProt O43603)
Sequence of GAL2 (h) (O43603 whole entry): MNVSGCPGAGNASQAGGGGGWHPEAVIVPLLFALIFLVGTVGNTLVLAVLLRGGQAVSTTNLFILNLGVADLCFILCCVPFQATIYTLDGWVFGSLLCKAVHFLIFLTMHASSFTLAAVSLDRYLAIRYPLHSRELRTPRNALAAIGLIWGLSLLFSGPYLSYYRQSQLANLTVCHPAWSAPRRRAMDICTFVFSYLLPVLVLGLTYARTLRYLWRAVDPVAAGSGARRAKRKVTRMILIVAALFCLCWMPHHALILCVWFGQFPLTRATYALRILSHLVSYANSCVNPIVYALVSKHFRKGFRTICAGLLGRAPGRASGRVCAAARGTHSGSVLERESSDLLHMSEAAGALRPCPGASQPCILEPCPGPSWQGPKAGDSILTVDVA
Method: as §1

[14] = target: H1 (h) (Homo sapiens, UniProt P35367)
Method: as §1

[15] = target: H2 (h) (Homo sapiens, UniProt P25021)
Method: as §1

[16] = tested on: K^+V channel
Method: as §1

[17] = target: M1 (h) (Homo sapiens, UniProt P11229)
Sequence of M1 (h) (P11229 whole entry): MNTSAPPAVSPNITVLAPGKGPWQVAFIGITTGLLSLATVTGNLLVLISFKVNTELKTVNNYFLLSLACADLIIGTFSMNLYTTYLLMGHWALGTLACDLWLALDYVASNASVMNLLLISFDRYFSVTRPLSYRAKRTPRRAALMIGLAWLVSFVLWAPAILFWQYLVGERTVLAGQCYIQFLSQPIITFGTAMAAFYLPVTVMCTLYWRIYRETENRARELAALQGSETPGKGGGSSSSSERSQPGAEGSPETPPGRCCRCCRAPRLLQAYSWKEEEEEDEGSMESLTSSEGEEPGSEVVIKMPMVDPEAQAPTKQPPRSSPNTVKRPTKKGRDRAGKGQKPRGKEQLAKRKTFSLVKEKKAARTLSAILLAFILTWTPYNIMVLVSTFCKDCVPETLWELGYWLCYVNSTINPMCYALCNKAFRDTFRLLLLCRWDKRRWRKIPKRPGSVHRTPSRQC
Method: as §1

[18] = target: M3 (h) (Homo sapiens, UniProt P20309)
Sequence of M3 (h) (P20309 whole entry): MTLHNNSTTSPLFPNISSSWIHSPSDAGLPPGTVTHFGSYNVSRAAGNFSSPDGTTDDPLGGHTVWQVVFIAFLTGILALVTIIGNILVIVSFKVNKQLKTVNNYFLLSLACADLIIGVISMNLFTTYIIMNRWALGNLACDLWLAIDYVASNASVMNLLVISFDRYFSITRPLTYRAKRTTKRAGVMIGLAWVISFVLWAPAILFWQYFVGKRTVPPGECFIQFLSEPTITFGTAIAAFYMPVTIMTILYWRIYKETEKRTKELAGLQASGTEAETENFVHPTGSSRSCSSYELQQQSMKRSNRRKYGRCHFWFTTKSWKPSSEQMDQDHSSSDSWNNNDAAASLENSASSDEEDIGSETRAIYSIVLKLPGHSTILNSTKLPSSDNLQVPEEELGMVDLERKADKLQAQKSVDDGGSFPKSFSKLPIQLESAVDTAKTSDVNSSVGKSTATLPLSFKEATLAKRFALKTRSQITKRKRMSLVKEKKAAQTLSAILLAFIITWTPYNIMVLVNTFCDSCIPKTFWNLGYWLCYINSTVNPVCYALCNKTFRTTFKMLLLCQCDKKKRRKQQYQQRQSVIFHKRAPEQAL
Method: as §1

[19] = target: MC4 (h) (Homo sapiens, UniProt P32245)
Method: as §1

[20] = target: MT1 (h) (Homo sapiens, UniProt P48039)
Sequence of MT1 (h) (P48039 whole entry): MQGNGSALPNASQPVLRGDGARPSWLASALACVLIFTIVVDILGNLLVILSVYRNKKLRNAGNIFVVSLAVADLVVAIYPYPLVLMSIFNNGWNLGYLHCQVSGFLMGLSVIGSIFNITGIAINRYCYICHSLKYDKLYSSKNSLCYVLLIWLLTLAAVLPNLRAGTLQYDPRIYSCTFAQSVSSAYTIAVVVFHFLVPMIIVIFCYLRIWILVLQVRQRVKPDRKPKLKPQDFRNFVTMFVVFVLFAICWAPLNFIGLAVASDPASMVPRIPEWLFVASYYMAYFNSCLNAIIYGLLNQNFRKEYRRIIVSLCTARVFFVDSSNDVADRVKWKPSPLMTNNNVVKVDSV
Method: as §1

[21] = target: NK3 (h) (Homo sapiens, UniProt P29371)
Method: as §1

[22] = tested on: Na^+ channel (site 2)
Method: as §1

[23] = target: ORL1 (h) (NOP) (Homo sapiens, UniProt P41146)
Method: as §1

[24] = tested on: SK^+Ca channel
Method: as §1

[25] = target: Y1 (h) (Homo sapiens, UniProt P25929)
Method: as §1

[26] = target: Y2 (h) (Homo sapiens, UniProt P49146)
Sequence of Y2 (h) (P49146 whole entry): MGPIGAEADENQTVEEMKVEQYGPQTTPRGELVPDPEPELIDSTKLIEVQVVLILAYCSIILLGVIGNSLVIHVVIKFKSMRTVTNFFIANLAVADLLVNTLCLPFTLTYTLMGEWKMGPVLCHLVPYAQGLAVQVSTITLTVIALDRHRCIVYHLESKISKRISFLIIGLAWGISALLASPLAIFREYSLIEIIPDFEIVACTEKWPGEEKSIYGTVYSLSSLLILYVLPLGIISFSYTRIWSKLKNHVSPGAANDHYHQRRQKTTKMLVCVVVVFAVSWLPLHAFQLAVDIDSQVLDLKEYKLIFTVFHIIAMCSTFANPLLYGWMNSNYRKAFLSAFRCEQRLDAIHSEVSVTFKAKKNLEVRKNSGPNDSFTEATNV
Method: as §1

[27] = tested on: alpha 1
Method: as §1

[28] = tested on: alpha 2
Method: as §1

[29] = target: delta 2(h) (DOP) (Homo sapiens, UniProt P41143)
Sequence of delta 2(h) (DOP) (P41143 whole entry): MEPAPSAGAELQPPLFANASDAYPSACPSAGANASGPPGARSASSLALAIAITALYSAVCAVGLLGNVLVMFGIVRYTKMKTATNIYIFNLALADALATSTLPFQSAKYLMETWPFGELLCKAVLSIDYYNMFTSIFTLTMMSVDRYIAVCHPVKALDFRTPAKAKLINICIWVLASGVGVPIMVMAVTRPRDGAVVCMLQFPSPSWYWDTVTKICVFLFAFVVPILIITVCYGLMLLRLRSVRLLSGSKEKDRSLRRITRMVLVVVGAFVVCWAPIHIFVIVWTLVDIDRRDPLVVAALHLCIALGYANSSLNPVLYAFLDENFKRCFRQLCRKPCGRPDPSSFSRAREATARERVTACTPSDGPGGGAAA
Method: as §1

[30] = tested on: kappa (KOP)
Method: as §1

[31] = target: mu (h) (MOP) (Homo sapiens, UniProt P35372)
Method: as §1

[32] = tested on: sst (non-selective)
Method: as §1

Sequence of 5-HT1A (h) (P08908 whole entry): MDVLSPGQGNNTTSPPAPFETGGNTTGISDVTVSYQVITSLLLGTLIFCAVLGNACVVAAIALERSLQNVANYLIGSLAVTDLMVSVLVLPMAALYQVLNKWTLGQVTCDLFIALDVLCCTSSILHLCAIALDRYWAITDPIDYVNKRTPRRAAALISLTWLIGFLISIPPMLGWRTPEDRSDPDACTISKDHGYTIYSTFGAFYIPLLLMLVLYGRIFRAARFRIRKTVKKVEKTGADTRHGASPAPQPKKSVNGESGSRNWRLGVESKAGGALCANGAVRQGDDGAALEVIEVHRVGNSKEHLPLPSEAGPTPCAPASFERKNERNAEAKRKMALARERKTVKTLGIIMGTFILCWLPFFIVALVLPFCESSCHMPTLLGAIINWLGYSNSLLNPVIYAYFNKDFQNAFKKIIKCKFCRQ

C=CC(=O)N[C@H]1CCC[C@H]1NC(=O)c1sc2nccc3c2c1NC(=O)N3c1cnc(CC(C)C)cc1C (atropisomer, axis not shown) [compound of Formula (III), N-((1R,2S)-2-Acrylamidocyclopentyl)-5-(S)-(6-isobutyl-4-methylpyridin-3-yl)-4-oxo-4,5-dihydro-3H-1-thia-3,5,8-triazaacenaphthylene-2-carboxamide]
inhibition at 10 µM [1]: < 10%
inhibition at 10 µM [2]: < 10%
inhibition at 10 µM [3]: < 10%
inhibition at 10 µM [4]: < 10%
inhibition at 10 µM [5]: < 10%
inhibition at 10 µM [6]: < 10%
% Inhibition at 10 μM [7]: — (no inhibition observed)
inhibition at 10 µM [8]: < 10%
% Inhibition at 10 μM [9]: — (no inhibition observed)
inhibition at 10 µM [10]: < 10%
inhibition at 10 µM [11]: < 10%
% Inhibition at 10 μM [12]: — (no inhibition observed)
inhibition at 10 µM [13]: < 10%
inhibition at 10 µM [14]: < 10%
inhibition at 10 µM [15]: < 10%
% Inhibition at 10 μM [16]: 12.2%
inhibition at 10 µM [17]: < 10%
inhibition at 10 µM [18]: < 10%
inhibition at 10 µM [19]: < 10%
inhibition at 10 µM [20]: 13.4%
inhibition at 10 µM [21]: 38.9%
% Inhibition at 10 μM [22]: — (no inhibition observed)
inhibition at 10 µM [23]: 14.6%
% Inhibition at 10 μM [24]: — (no inhibition observed)
inhibition at 10 µM [25]: 44.4%
inhibition at 10 µM [26]: < 10%
% Inhibition at 10 μM [27]: — (no inhibition observed)
% Inhibition at 10 μM [28]: — (no inhibition observed)
inhibition at 10 µM [29]: < 10%
% Inhibition at 10 μM [30]: — (no inhibition observed)
inhibition at 10 µM [31]: < 10%
% Inhibition at 10 μM [32]: — (no inhibition observed)
